Assay results reported in publication PMC5715404, “Design, Synthesis, and Evaluation of Ribose-Modified Anilinopyrimidine Derivatives as EGFR Tyrosine Kinase Inhibitors” (Frontiers in Chemistry, 2017).
“Also recorded” adds a separate entry of the source.

Key:
EGFR L858R/T790M = biological target: T1, EGFR L858R/T790M (Homo sapiens, UniProt P00533, L858R/T790M); assay: ELISA-based EGFR-TK kinase assay, EGFR L858R/T790M; assay type: biochemical; conditions: for selectivity for EGFR L858R/T790M over WT EGFR (in words): EGFR L858R/T790M versus WT EGFR; for IC50 / inhibitory activity against EGFR tyrosine kinases (in words): ELISA; for IC50: 10 μmol/L ATP solution, 37°C 1 h, mean ± SD of at least two determinations, read-out: EGFR tyrosine kinase IC50, EGFR T790M/L858R; for inhibitory activity against EGFR tyrosine kinases (in words): EGFR WT and EGFR L858R/T790M
T1 construct: Kinases domain of EGFR WT and EGFR L858R/T790M were expressed; made in house; host or cells: baculovirus expression system (Bac-to-Bac)
Description: (§1) Kinases domain of EGFR WT and EGFR L858R/T790M were expressed using the Bac-to-Bac™ baculo virus expression system (Invitrogen, Carlsbad, CA, USA) and purified in Ni-NTA columns (QIAGEN Inc., Valencia, CA, USA). The kinase activity was evaluated with enzyme-linked immunosorbent assay (ELISA). Briefly, 20 μg/mL Poly (Glu, Tyr) 4:1 (Sigma, St. Louis, MO) was precoated in 96-well ELISA plates as substrate. After adding 50 μL of 10 μmol/L ATP solution which was diluted in kinase reaction buffer (50 mM HEPES pH 7.4, 20 mM MgCl2, 0.1 mM MnCl2, 0.2 mM Na3VO4, 1 mM DTT), the plate was treated with 1 μL of indicated concentrations of compounds (dissolved in DMSO) per well. Experiments at each concentration were performed in duplicate. Reaction was initiated by adding tyrosine kinase diluted in kinase reaction buffer. After incubation at 37°C for 1 h, the wells were washed three times with phosphate buffered saline (PBS) containing 0.1% Tween 20 (T-PBS). One hundred microliters of anti-phosphotyrosine (PY99) antibody (1:1,000, Santa Cruz Biotechnology, Santa Cruz, CA) diluted in T-PBS containing 5 mg/mL BSA was added and the plate was incubated at 37°C for 30 min. After the plate was washed three times, 100 μL horseradish peroxidase-conjugated goat anti-mouse IgG (1:2,000, Calbiochem, SanDiego, CA) was added and the plate was incubated at 37°C for 30 min. The plate was washed, added with 100 μL citrate buffer (0.1 M, pH 5.5) containing 0.03% H2O2. Then 2 mg/mL o-phenylenediamine was added, and samples were incubated at room temperature until color emerged. The reaction was terminated immediately by adding 50 μL of 2 M H2SO4. Plate was read using a multiwell spectrophotometer (VERSAmax™, Molecular Devices, Sunnyvale, CA, USA) at 492 nm. The inhibitory rate (%) was calculated with the formula: [1 − (A492 treated/A492 control)] × 100%. IC50 values were calculated from the inhibitory curves.

EGFR WT = biological target: T2, EGFR WT (Homo sapiens, UniProt P00533); assay: ELISA-based EGFR-TK kinase assay, EGFR WT; assay type: biochemical; conditions: 10 μmol/L ATP solution, 37°C 1 h, mean ± SD of at least two determinations, read-out: EGFR tyrosine kinase IC50, EGFR
T2 construct: Kinases domain of EGFR WT and EGFR L858R/T790M were expressed; made in house; host or cells: baculovirus expression system (Bac-to-Bac)
Description: as §1

T2 sequence (P00533 712-979 limits assumed): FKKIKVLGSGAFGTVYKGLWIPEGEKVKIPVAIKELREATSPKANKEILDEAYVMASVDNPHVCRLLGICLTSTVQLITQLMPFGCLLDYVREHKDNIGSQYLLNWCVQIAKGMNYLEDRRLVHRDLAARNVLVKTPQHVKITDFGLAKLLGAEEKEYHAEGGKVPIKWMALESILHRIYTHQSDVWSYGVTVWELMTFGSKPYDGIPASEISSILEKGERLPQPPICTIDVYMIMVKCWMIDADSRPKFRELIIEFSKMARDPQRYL
T1 sequence (P00533 712-979 T790M/L858R limits assumed): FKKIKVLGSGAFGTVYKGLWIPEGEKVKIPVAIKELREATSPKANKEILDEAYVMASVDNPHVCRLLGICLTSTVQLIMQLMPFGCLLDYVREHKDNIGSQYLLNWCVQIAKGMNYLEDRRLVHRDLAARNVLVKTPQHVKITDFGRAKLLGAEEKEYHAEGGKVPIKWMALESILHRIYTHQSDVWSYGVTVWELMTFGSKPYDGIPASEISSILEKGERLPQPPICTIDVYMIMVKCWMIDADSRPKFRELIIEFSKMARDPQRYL

| SMILES | IC50 (EGFR L858R/T790M) [µM] | IC50 (EGFR WT) [µM] | selectivity for EGFR L858R/T790M over WT EGFR (in words) (EGFR L858R/T790M) | inhibitory activity against EGFR tyrosine kinases (in words) (EGFR L858R/T790M) |
| --- | --- | --- | --- | --- |
| COc1cc(N2CCN(C)CC2)ccc1Nc1ncc(Cl)c(OC[C@H]2OC(O)[C@H](O)[C@@H]2O)n1 (stereo partly drawn) [Compound 26] | > 10 | > 10 |  |  |
| C=CC(=O)N[C@H]1O[C@H](CO)[C@@H](Oc2nc(Nc3ccc(N4CCN(C)CC4)cc3OC)ncc2Cl)[C@H]1O[Si](C)(C)C(C)(C)C [Compound 1d, 3-O-[5-chloro-2-N-(2-methoxy-4-(4-methylpiperazin-1-yl)phenyl)pyrimidin-4-yl]-2-O-tert-butyldimethylsilyl-α-D-ribofuranosyl acrylamide] | > 10 | > 10 |  | no inhibitory activities; also recorded: no inhibitory activity |
| COc1cc(N2CCN(C)CC2)ccc1Nc1ncc(Cl)c(O[C@H]2[C@@H](O[Si](C)(C)C(C)(C)C)[C@H](N=[N+]=[N-])O[C@@H]2CO)n1 [Compound 25] | > 10 | > 10 |  |  |
| COc1cc(N2CCN(C)CC2)ccc1Nc1ncc(Cl)c(OC[C@H]2O[C@@H](N=[N+]=[N-])[C@H](O)[C@@H]2O)n1 [Compound 24] | > 10 | > 10 |  |  |

Now from value to molecule, other results behind:

| IC50 (EGFR L858R/T790M) [µM] | IC50 (EGFR WT) [µM] | SMILES | selectivity for EGFR L858R/T790M over WT EGFR (in words) (EGFR L858R/T790M) | inhibitory activity against EGFR tyrosine kinases (in words) (EGFR L858R/T790M) |
| --- | --- | --- | --- | --- |
| 0.62 | > 10 | C=CC(=O)N[C@H]1[C@H]2OC(C)(C)O[C@H]2O[C@@H]1COc1nc(Nc2ccc(N3CCN(C)CC3)cc2OC)ncc1Cl [Compound 1a, 1,2-O-isopropylidene-3-N-acryloyl-3-deoxy-5-O-[5-chloro-2-N-(2-methoxy-4-(4-methylpiperazin-1-yl)phenyl)pyrimidin-4-yl]-α-D-ribofuranoside] | potent and specific inhibitory activity; also recorded: good selectivity |  |
| > 10 | > 10 | C=CC(=O)NC1O[C@H](COc2nc(Nc3ccc(N4CCN(C)CC4)cc3OC)ncc2Cl)[C@@H](O)[C@H]1O (stereo partly drawn) [Compound 1c, 5-O-[5-chloro-2-N-(2-methoxy-4-(4-methylpiperazin-1-yl)phenyl)pyrimidin-4-yl]-D-ribofuranosyl acrylamide] |  | no inhibitory activities; also recorded: no inhibitory activity |
| 2.64 | > 10 | C=CC(=O)N[C@@H]1[C@@H](COc2nc(Nc3ccc(N4CCN(C)CC4)cc3OC)ncc2Cl)OC(O)[C@@H]1O (stereo partly drawn) [Compound 1b, 3-N-acryloyl-3-deoxy-5-O-[5-chloro-2-N-(2-methoxy-4-(4-methylpiperazin-1-yl)phenyl)pyrimidin-4-yl]-D-ribofuranose] | specific inhibitory activity |  |
